Source: patent US4489079A, “Pharmaceutical compositions having a peripheral antagonistic action with respect to opiates” (priority 1981, dated 1984)

Experiments:
[1] = tested on: analgesic effect of morphine; conditions: for ID50 a / ID50 c: ratio of analgesic-effect ID50 a to constipating-effect ID50 c; for ID50 a / ID50 c / Antagonism with respect to the analgesic effect ID50 a: (°) inactive up to the maximum injectable dose; for Antagonism with respect to the analgesic effect ID50 a: subcutaneous antagonist, 5 min before 12 mg/kg s.c. morphine, female mice, limits in parentheses, where given, on next line; for central effects / central activity (in words): conclusion from Table I
[2] = tested on: constipating effect of morphine; assay: antagonism to the constipating effect of morphine (charcoal meal test, after A. F. Green, modified); conditions: for Antagonism with respect to the constipating effect ID50 c: subcutaneous antagonist, 5 min before 12 mg/kg s.c. morphine, female mice, extrapolated from least squares line log dose-response, limits in parentheses printed on next line; for ED50: Mus musculus, sc, read-out: Antagonism with respect to the constipating effect ID50 c
[3] = tested on: analgesic effect of morphine; assay: animal or person; conditions: Mus musculus, sc, read-out: Antagonism with respect to the analgesic effect ID50 a
[4] = morphine control group, 12 mg/kg subcutaneous

Row | SMILES | ID50 a / ID50 c [1] | Antagonism with respect to the analgesic effect ID50 a [1] | Antagonism with respect to the constipating effect ID50 c [2] | animals showing the increase of the threshold of sensitivity [1, 4] | average increase of the threshold of sensitivity [1, 4] | central effects / central activity (in words) [1] | ED50 [3] | ED50 [2] | ID50 a relative to ID50 c (in words) ([1]; mouse, in vivo)
1 | C=CC[N+]1(CC=C)CC[C@]23CCCC[C@H]2[C@H]1Cc1ccc(O)cc13 [levallorphan bromoallylate, bromoallylate of levallorphan] | > 5.11 | > 80 mg/kg |  |  |  |  |  |  | 
2 | C=CC[N+]1(CC=C)CC[C@]23CCCC[C@H]2[C@H]1Cc1ccc(O)cc13 [levallorphan iodoallylate, iodoallylate of levallorphan] | > 3.61 | > 60 mg/kg | 16.68 mg/kg |  |  |  |  |  | 
3 | CN1CC[C@]23c4c5ccc(O)c4O[C@H]2[C@@H](O)C=C[C@H]3[C@H]1C5 [morphine] |  |  |  | 100% | 100% |  |  |  | 
4 | C=CC[N+]1(C)CC[C@]23c4c5ccc(O)c4O[C@H]2C(=O)CC[C@@]3(O)[C@H]1C5 (some centres unmarked) [naloxone bromomethylate] | 0.47 |  |  |  |  | have a certain central activity | 5.12 mg/kg | 10.8 mg/kg | 
5 | C=CC[N+]1(C)CC[C@]23c4c5ccc(O)c4O[C@H]2C(=O)CC[C@@]3(O)[C@H]1C5.COS(=O)(=O)[O-] (some centres unmarked) [naloxone sulfomethylate] | 1.68 | 5.039 mg/kg | 2.99 mg/kg |  |  | have a certain central activity |  |  | 
6 | C=CCN1CC[C@]23c4c5ccc(O)c4O[C@H]2C(=O)CC[C@@]3(O)[C@H]1C5 [naloxone, N-allylnoroxymorphone] | 0.11 |  |  |  |  | very active | 0.083 mg/kg | 0.75 mg/kg | much more active as antagonist of the analgesic effect than antagonist of the constipating effect
